Key:
[1] = system: human breast cancer cell line MD-MBA-231; assay: Bioactivity-guided percent apoptosis, Annexin V/Propidium iodide FACS, 48-h incubation; format: cell-based; set-up: key: % of cells (Annexin V/PI FACS); details: Table E5; Dose 100
Method: Apoptosis was evaluated against human breast cancer cell line MD-MBA-231. Cells were maintained in RPMI 1640 medium (PAA Laboratories GmbH, Teddington Middlesex, UK) supplemented with 10% heat-inactivated tetracycline-free fetal calf serum (PAA Laboratories) and 2 mM L-glutamine, 100 units/ml penicillin, and 100 μg/ml streptomycin (Gibco, Grand Island, N.Y.). Cells were propagated and cultured at 37° C. in a 100% relative humidified atmosphere consisting of 5% C02 and 95% air. Cells were trypsinized with 0.05% Trypsin-0.2% EDTA (w/v) solution.
The bioactivity-guided isolation of the compounds was performed using percent apoptosis in human breast cancer cells (cell line MD-MBA-231) as the reporter. Cells were seeded in a standard 24-well microtiter plate at a density of 1.5×10^4 cells/well in […] tissue culture medium. After a 24-h incubation period cells were treated with individual fractions from the wood of Guaiacum officinale L. Test compounds were mixed in solution using DMSO as vehicle (10 μg extract/1 ml DMSO), at 30 μl. Following a 48-h incubation period, the induction of apoptosis in cell cultures was analyzed by fluorescence-activated cell sorter (FACS Caliber Becton Dickinson, San Jose, Calif.), double staining with Annexin V/Propidium iodide.
Three fractions were chosen for further evaluation based on their apoptotic activity, yields, and simplicity of their HPLC profiles. Fraction 5 was obtained by combining F5 and F6, and fraction 13 by combining fractions 13 and 14. Fraction 8 was not combined with any other. Combinations were based on TLC profiles, (FIG. 17). The percent apoptosis was calculated by using Annexin V/FITC staining and flow cytometry (Table E4).

[2] = system: Human breast cancer cell line MB-MDA-231; assay: Annexin V FITC / PI apoptosis detection by flow cytometry, 24 h; format: cell-based; details: 24 h; for early stage apoptosis, FITC (+)/PI (−) staining, significance: 1.2, 6.0, 30.0 ppm
Method: Human breast cancer cell line MB-MDA-231 were cultured in Dulbecco's Modified Eagle's medium (DMEM-Sigma, D-5648), supplemented with 10% (heat-inactivated) Fetal Bovine Serum (Atlanta Biologicals, Inc.) and Antibiotic Solution, 100× (Sigma A-9909). Cells were gown at 37° C., at 5-7% CO2, and 95% humidity and were obtained from the American Type Culture Collection (ATCC). Cells were trypsinized with 0.05% Trypsin-0.2% EDTA (w/v) solution (Invitrogen Corporation, Carlsbad, Calif.).
The induction of apoptosis in MB-MDA-231 was analyzed using a well-validated Annexin V FITC apoptosis detection kit (Calbiochem), Darzynkiewicz, 1998. The phosphatidylserine (PS)-specific dye Annexin-V is used to detect apoptotic-specific changes to the organization of phospholipids leading to exposure of PS on the cell surface that precedes nuclear breakdown, DNA fragmentation, and the appearance of most apoptosis-associated molecules. For these studies cells were seeded at 25×10^4 cells/1.5 ml in a 24 well microtiter plate. Cells were allowed to adhere to plates for 24 h, and then exposed to lignans of the present invention at 5-fold dilutions of 30 μl, 6 μl, and 1.2 μl per well for 24 h. Test compounds were mixed in solution using DMSO as vehicle (10 mg extract/1 ml DMSO). Camptothecin was used as a positive control. Following the incubation period 700 μl of suspended cells were transferred to 15 ml conical tubes. Cells that remained adhered to the 24-well plates were gently washed with PBS (137 mM NaCl, 2.7 mM KCL, 4.3 mM Na2HPO4-7H2O, 1.4 mM KH2PO4, adjusted to pH 7.4), trypsinized with 1 ml of solution (0.05% Trypsin—0.2% EDTA [w/v]), and resuspended with the suspended cells/media collected in the 15 ml conical tubes from the previous step. 10 μl of media-binding reagent and 1.25 μl Annexin V-FITC was added to the 15 ml conical tubes containing both the 700 μl of suspended cells and the resuspended cells and incubated at room temperature for 15 min, at 18-24° C., in the dark. Tubes were centrifuged for 5 minutes at 1000×g at room temperature. Media was removed and cells were gently resuspended in 0.5 ml cold 1×binding buffer (dilution; 5× Binding Buffer concentrate 1:5 with dH2O) and placed on ice. 10 μl of propidium iodide was added to each tube. Cells were placed on ice away from light and analyzed immediately by flow cytometry. The dual fluorescence emissions of the respective dyes were detected in cell preparations on a BD-Biosciences FACS Aria high-speed flow cytometer/cell sorter utilizing a quartz cuvette for interrogation. To quantify the Annexin V (FL1 at 518 nm) and propidium iodide (620 nm) signals, apoptosis-induced cells (CPT) stained with FITC only and apoptosis-induced cells (CPT) labeled with only propidium iodide were utilized. Necessary adjustments were made to minimize overlap between these two measurements. Typically, 10,000-20,000 cells were scored for each sample and classified as either viable, early apoptotic, or late apoptotic or necrotic. All experiments were repeated at least three times, each in duplicate.
The principal of the Annexin V/FITC assay is that, Annexin V, an anticoagulant protein, preferentially binds negatively charged phospholipids. Early in the apoptotic process, phospholipid asymmetry is disrupted leading to the exposure of phosphatidylserine (PS) on the outer leaflet of the cytoplasmic membrane. Annexin V binds to the negatively charged calcium-dependent PS. Conjugating FITC to Annexin V with simultaneous propidium iodide (PI) staining allows bivariate analysis of intact cells. Live, healthy cells are double negative, FITC (−)/PI (−), and are seen in the lower left quadrant [A3] of FACS cytograms. Cells that are FITC (+)/PI (−) [A4] are early apoptotic. Cell populations that are advanced apoptotic or necrotic are FITC (+)/PI (+) are located in quadrant [A2]. […]

cell line MD-MBA-231 = assay: Cell cycle analysis by DNA content (hypotonic PI staining, flow cytometry); format: cell-based, human; details: for % events in sub G0 (apoptotic events) / effect on cell population in G2/M / effect on cell populations in S-phase, significance / singlet count: 1.2, 6.0, 30.0 ppm; for % events in sub G0 (apoptotic events) / effect on cell population in G2/M / effect on cell populations in S-phase, significance / singlet count / % of cells in S-phase: 24 h
Method: Twenty-four hours after exposure to compounds, 25×10^4 cells in 1.5 ml cells were simply re-suspended following either the Annexin V/FITC assay or the trypsin procedures. Cells were centrifuged at 1000-x g at room temperature and washed in 0.5 ml of hypotonic staining solution. Cells were kept a minimum of 30 min. at 4° C. in the dark. Samples were usually analyzed by flow cytometry on the same day or at 24 hrs. Resulting DNA distributions were analyzed for the proportion of cells in apoptosis and in G0/G1, S, and G2/M phases of the cell cycle. Singlet events were gated and 10,000-20,000 events were acquired within the gated region. All experiments were repeated at least three times, each in duplicate.
The cell cycle comprises steps that regulate the correct temporal sequence of events that control the growth, reproduction and differentiation of cells. The cell cycle consists of 4 phases: G0/G1, S (DNA synthesis), G2, and M (mitosis). In addition, checkpoints located in the cell cycle transition ensure that cell growth and division occur in response to appropriate signals and environment. When proliferating, if cells are subjected to DNA damage the cell cycle temporarily pauses either at G1, S or G2 phase. Arrest at these checkpoints prevents DNA replication and mitosis in the presence of unrepaired DNA damage and presumably allows time for DNA repair to occur. The proportion of cells that arrest in G1, S or G2 after damage depends on cell type, growth conditions, type of damage and the checkpoints operative in the cells. Shifts in the redistribution of phases of the cell cycle in response to various stimuli can be readily assessed by flow cytometry. DNA content analysis with the use of PI is one of the most common assays. The use of intercalating dyes to measure DNA content are the most common and are usually sufficient to determine relative shifts in the phases of the cell cycle. The hypotonic solution lyses the plasma membrane and prevents many of the aggregate problems associated with fixed cells. Propidium Iodide(PI) passes through permeabilized cell membranes and intercalates with cellular DNA. Therefore, the intensity of the PI signal is directly proportional to DNA content. DNA content experiments determine the percent induction of apoptosis and relative distribution of the cell cycle phases.
The percent of apoptotic cells (cells with fractional DNA content; sub G1 cells) were established by estimating the percentage of events showing up in sub G0. The Sub-G1 method relies on the fact that after DNA fragmentation, there are small fragments of DNA that may be eluted. However in order to be seen in the Sub G1 area, a cell must have lost enough DNA to appear there; so if cells enter apoptosis from the S or G2/M phase of the cell cycle or if there is an aneuploid population undergoing apoptosis, they may not appear in the Sub G1 peak. The number of events in sub G1 (number of nuclear fragments) provides no information on the # of cells undergoing apoptosis.

Question: Which results are given for COc1cc([C@H]2O[C@@H](c3ccc(O)c(OC)c3)[C@@H](C)[C@H]2C)ccc1O [I-d]?
Answer: Apoptosis [1]: 91.14; Necrosis [1]: 0.35; early stage apoptosis, FITC (+)/PI (−) staining, significance [2]: significantly increased; early apoptosis surpassing that induced by camptothecin ([2]; 6.0 ppm): 10%; early apoptosis surpassing that induced by camptothecin ([2]; 30 ppm): 24%; % events in sub G0 (apoptotic events) (cell line MD-MBA-231): increased and significantly induced apoptotic activity at 30.0 ppm; effect on cell population in G2/M (cell line MD-MBA-231): lowest accumulation at 30 ppm; effect on cell populations in S-phase, significance (cell line MD-MBA-231): significantly inhibited cell populations in S-phase at all doses; singlet count (cell line MD-MBA-231): significance decreases at all doses; % of cells in S-phase (cell line MD-MBA-231; 1.2 ppm): 8.2%; % of cells in S-phase (cell line MD-MBA-231; 6.0 ppm): 4.7%; % of cells in S-phase (cell line MD-MBA-231; 30 ppm): 0%

Question: Which results are given for COc1cc([C@H]2O[C@H](c3ccc(O)c(OC)c3)[C@@H](C)[C@H]2C)ccc1O [I-e]?
Answer: early stage apoptosis, FITC (+)/PI (−) staining, significance [2]: did not show any significant increases; % events in sub G0 (apoptotic events) (cell line MD-MBA-231): without showing increased number of events in sub G0; effect on cell population in G2/M (cell line MD-MBA-231): significant blockage in G2/M at 30 ppm; effect on cell populations in S-phase, significance (cell line MD-MBA-231): significance at the highest concentration; singlet count (cell line MD-MBA-231): approximately equal level of cell death as shown with untreated cells; increase in % events at G2/M over isonectandrin B and nectandrin B (cell line MD-MBA-231; highest treatment): approximately 3 fold; increase in % events at G2/M over untreated cells (cell line MD-MBA-231; highest treatment): 8%

Question: How did the Apoptosis [1] turn out when C=C1[C@@H](c2ccc(O)c(OC)c2)O[C@@H](c2ccc(O)c(OC)c2)[C@@]12CCC1=C(C2)[C@@H](c2ccc(O)c(OC)c2)O[C@H]1c1ccc(O)c(OC)c1 [I-a] was run?
Answer: 90.12

Question: And the Necrosis [1]?
Answer: 0.82

Question: And the “% events in sub G0 (apoptotic events)” value (cell line MD-MBA-231)?
Answer: strong apoptotic activity at 6.0 ppm, but then declined somewhat at 30 ppm

Question: What about the “effect on cell populations in S-phase, significance” value (cell line MD-MBA-231) of the same molecule?
Answer: progressive decrease in % S-phase events with increasing drug concentration

Question: What about the “% of cells in S-phase” value (cell line MD-MBA-231; 30 ppm) of the same molecule?
Answer: < 3%

Question: What does the source list for COc1cc([C@H]2O[C@@H](c3ccc(O)c(OC)c3)[C@H](C)[C@@H]2C)ccc1O [I-c]?
Answer: Apoptosis [1]: 92.9; Necrosis [1]: 1.81; early stage apoptosis, FITC (+)/PI (−) staining, significance [2]: significantly increased; early apoptosis surpassing that induced by camptothecin ([2]; 30 ppm): 10%; % events in sub G0 (apoptotic events) (cell line MD-MBA-231): increased and significantly induced apoptotic activity at 30.0 ppm; effect on cell population in G2/M (cell line MD-MBA-231): significant reduction of cells at 6 and 30 ppm; effect on cell populations in S-phase, significance (cell line MD-MBA-231): inhibited cells from entering this stage as well in a concentration-dependent manner; singlet count (cell line MD-MBA-231): reached minimal levels at 30 ppm

Question: What does the source list for COc1cc(C[C@@H](C)[C@@H](C)Cc2ccc(O)c(OC)c2)ccc1O [I-f]?
Answer: % events in sub G0 (apoptotic events) (cell line MD-MBA-231): no significant increases; effect on cell populations in S-phase, significance (cell line MD-MBA-231): did so at 30 ppm; % of cells in S-phase (cell line MD-MBA-231; 30 ppm): 6%

Question: With C=C1[C@@H](c2ccc(O)c(OC)c2)O[C@@H](c2ccc(O)c(OC)c2)[C@]12CCC1=C(C2)[C@@H](c2ccc(O)c(OC)c2)O[C@H]1c1ccc(O)c(OC)c1 [I-b] as the molecule, how does the Apoptosis [1] read?
Answer: 81.37

Question: And the Necrosis [1]?
Answer: 0.41

Question: And the “late stage apoptotic cell death count, FITC (+)/PI (+)” value ([2]; highest concentration)?
Answer: 63%

Question: What about the “% events in sub G0 (apoptotic events)” value (cell line MD-MBA-231) of the same molecule?
Answer: significance at 6 and 30 ppm

Question: What about the “effect on cell populations in S-phase, significance” value (cell line MD-MBA-231) of the same molecule?
Answer: significant decrease in cell populations at the two highest doses

Question: What about the “% of cells in S-phase” value (cell line MD-MBA-231; 30 ppm) of the same molecule?
Answer: 4.5%

Source: patent US8563603B2, “Polycyclic compounds and methods related thereto” (Cornell University, priority 2008, dated 2013)
